Results published in patent US20090042913A1, “Indolylalkylthienopyrimidylamines as modulators of the EP2 receptor” (priority 2007, published 2009).

How the values were obtained:
[1] = system: cumulus-oocyte complexes (PGE2-induced cumulus expansion); experiment: Cumulus expansion assay in vitro; type: cell-based, mice; details: in competition with PGE2
Protocol: Folliculogenesis is induced in immature female mice at an age of 14-18 days by a single dose (intraperitoneal) of 10 I.U. of PMSG (Pregnant Mare Serum Gonadotropin; Sigma G-4877, Lot 68H0909). 47-50 hours after the injection, the ovaries are removed and the cumulus-oocyte complexes are removed. The cumulus complex is not yet expanded at this stage.
The cumulus-oocyte complexes are then incubated with prostaglandin E2 (PGE2) (0.3 μM), vehicle control (ethanol) or test substances for 20-24 hours. Medium: alpha-MEM medium with 0.1 mM IBMX, pyruvates (0.23 mM) glutamines (2 mM), pen/strep 100 IU/ml pen. and 100 μg/ml strep. and HSA (8 mg/ml). Cumulus expansion is then established through the division into four stages (according to Vanderhyden et al. Dev Biol. 1990 August; 140(2):307-317).

[2] = target: T1, human prostaglandin E2 (subtype EP2) receptor (Homo sapiens, UniProt P43116); experiment: cAMP antagonism assay (HTRF cAMP detection, PGE2-stimulated cells); type: cell-based; details: cAMP antagonism test, in presence of PGE2
T1 construct: host or cells: cells in a cell culture plate
T1 sequence (P43116 whole entry): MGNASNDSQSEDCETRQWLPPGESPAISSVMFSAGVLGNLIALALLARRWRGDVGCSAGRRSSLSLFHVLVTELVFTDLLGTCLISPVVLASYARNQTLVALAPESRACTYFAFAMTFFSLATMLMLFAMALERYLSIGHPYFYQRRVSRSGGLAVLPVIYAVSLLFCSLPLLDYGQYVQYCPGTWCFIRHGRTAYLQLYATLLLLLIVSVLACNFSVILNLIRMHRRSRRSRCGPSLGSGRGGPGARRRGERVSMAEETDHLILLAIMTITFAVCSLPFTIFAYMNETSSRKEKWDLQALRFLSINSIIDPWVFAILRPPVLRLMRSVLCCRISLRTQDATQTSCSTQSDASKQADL
Protocol: (§1) The binding of PGE2 to the EP2 subtype of the human PGE2 receptor induces activation of membrane-associated adenylate cyclases and leads to the formation of cAMP. In the presence of the phosphodiesterase inhibitor IBMX, cAMP which has accumulated due to this stimulation and been released by cell lysis is employed in a competitive detection method. In this assay, the cAMP in the lysate competes with cAMP-XL665 for binding of an Eu cryptate-labelled anti-cAMP antibody.
(§2) The two signals are measured in a suitable measuring instrument with a time lag, i.e. after the background fluorescence has declined.
(§3) The substance solutions (0.75 μl) introduced into an assay plate and 30% DMSO are dissolved in 16 μl of a KRSB+IBMX stimulation solution (1× Krebs-Ringer Bicarbonate Buffer; Sigma-Aldrich # K-4002; including 750 μM 3-isobutyl-1-methylxanthine Sigma-Aldrich # I-7018), and then 15 μl thereof are transferred into a media-free cell culture plate which has been washed with KRSB shortly beforehand.
After preincubation at room temperature (RT) for 30 minutes, 5 μl of a 4×PGE2 solution (11 nM) are added, and incubation is carried out in the presence of the agonist at RT for a further 60 min (volume: ˜20 μl) before the reaction is then stopped by adding 5 μl of lysis buffer and incubated at RT for a further 20 min (volume: ˜25 μl). The cell lysate is then transferred into a measuring plate and measured in accordance with the manufacturer's information (cyclic AMP kit Cisbio International # 62AMPPEC).

[3] = target: T1, human prostaglandin E2 (subtype EP2) receptor; experiment: cAMP agonism assay (cellular agonism test); type: cell-based; details: without PGE2
Protocol: as §1, §2
as §3, with “1-7018),” for “I-7018),”
After incubation at room temperature (RT; volume: ˜15 μl) for 60 minutes, the reaction is then stopped by adding 5 μl of lysis buffer and incubated at RT for a further 20 min (volume: ˜20 μl). The cell lysate is then transferred into a measuring plate and measured in accordance with the manufacturer's instructions (cyclic AMP kit Cisbio International # 62AMPPEC).

| IC50 [2] | effect in the cellular agonism test [3] | Compound | suppression of cumulus expansion ([1]; 100-200 μM) | suppression of cumulus expansion ([1]; 10 μM) |
| --- | --- | --- | --- | --- |
| – | – | CC(C)Oc1ccc2c(=O)c3cc(C(=O)O)ccc3oc2c1 [AH 6809, reference compound] | approx. 30% | – |
| 0.111 µM | no inhibition | Cc1[nH]c2c(F)ccc(C)c2c1CCNc1ncnc2cc(-c3cccc(F)c3)sc12 [Example 22, [2-(7-fluoro-2,4-dimethyl-1H-indol-3-yl)ethyl]-[6-(3-fluorophenyl)thieno[3,2-d]pyrimidin-4-yl]amine] | – | 45% |
| 0.101 µM | – | Cc1[nH]c2c(F)ccc(C)c2c1CCNc1ncnc2cc(-c3ccc(C(F)(F)F)cc3)sc12 [Example 30, [2-(7-fluoro-2,4-dimethyl-1H-indol-3-yl)ethyl]-[6-(4-trifluoromethylphenyl)thieno[3,2-d]pyrimidin-4-yl]amine] | – | – |
| 0.097 µM | – | Cc1[nH]c2c(F)ccc(C)c2c1CCNc1ncnc2cc(-c3cc(F)ccc3F)sc12 [Example 55, [6-(2,5-difluorophenyl)thieno[3,2-d]pyrimidin-4-yl]-[2-(7-fluoro-2,4-dimethyl-1H-indol-3-yl)ethyl]amine] | – | – |
